# Measurements taken from ChEMBL document CHEMBL4387741, “Optimization of novel reversible Bruton's tyrosine kinase inhibitors identified using Tethering-fragment-based screens” (Bioorg Med Chem, 2019).
# Assays:
# [1] = target: Mitogen-activated protein kinase kinase kinase 5 (Homo sapiens) (UniProt Q99683); experiment: Inhibition of wild-type human partial length ASK1 (E648 to S964 residues) expressed in bacterial expression system at 1 uM by Kinomescan method relative to control
# [2] = target: Serine/threonine-protein kinase DCLK1 (Homo sapiens) (UniProt O15075); experiment: Inhibition of wild-type human partial length DCAMKL1 (L270 to A662 residues) expressed in mammalian expression system at 1 uM by Kinomescan method relative to control
# [3] = target: Dual specificity tyrosine-phosphorylation-regulated kinase 1A (Homo sapiens) (UniProt Q13627); experiment: Inhibition of wild-type human partial length DYRK1A (H129 to S509 residues) expressed in mammalian expression system at 1 uM by Kinomescan method relative to control
# [4] = target: Dual specificity tyrosine-phosphorylation-regulated kinase 1B (Homo sapiens) (UniProt Q9Y463); experiment: Inhibition of wild-type human full length DYRK1B (M1 to S629 residues) expressed in bacterial expression system at 1 uM by Kinomescan method relative to control
# [5] = target: Receptor tyrosine-protein kinase erbB-2 (Homo sapiens) (UniProt P04626); experiment: Inhibition of wild-type human partial length ERBB2 (K646 to V1225 residues) expressed in mammalian expression system at 1 uM by Kinomescan method relative to control
# [6] = target: Mitogen-activated protein kinase 6 (Homo sapiens) (UniProt Q16659); experiment: Inhibition of wild-type human partial length ERK3 (M1 to P413 residues) expressed in bacterial expression system at 1 uM by Kinomescan method relative to control
# Sequence of Mitogen-activated protein kinase 6 (Homo sapiens) (Q16659 whole entry, the tested form may be a part): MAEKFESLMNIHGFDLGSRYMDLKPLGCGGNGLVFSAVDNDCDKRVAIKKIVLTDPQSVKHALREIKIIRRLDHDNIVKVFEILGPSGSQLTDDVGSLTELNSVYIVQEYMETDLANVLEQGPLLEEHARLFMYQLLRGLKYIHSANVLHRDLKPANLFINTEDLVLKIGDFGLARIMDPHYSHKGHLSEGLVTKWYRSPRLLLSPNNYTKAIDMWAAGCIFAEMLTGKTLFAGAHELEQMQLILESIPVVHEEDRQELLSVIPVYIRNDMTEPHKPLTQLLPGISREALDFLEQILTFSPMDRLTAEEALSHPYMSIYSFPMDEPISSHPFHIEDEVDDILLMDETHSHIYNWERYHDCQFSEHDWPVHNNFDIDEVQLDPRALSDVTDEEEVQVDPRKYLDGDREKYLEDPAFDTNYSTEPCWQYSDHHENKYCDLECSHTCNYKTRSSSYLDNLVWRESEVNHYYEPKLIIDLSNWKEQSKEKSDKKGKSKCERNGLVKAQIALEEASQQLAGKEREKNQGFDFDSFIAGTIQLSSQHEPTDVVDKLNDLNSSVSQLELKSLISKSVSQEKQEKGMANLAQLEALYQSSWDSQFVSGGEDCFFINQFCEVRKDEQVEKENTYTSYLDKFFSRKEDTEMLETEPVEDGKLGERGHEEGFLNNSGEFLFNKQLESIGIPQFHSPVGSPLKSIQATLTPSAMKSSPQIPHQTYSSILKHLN
# [7] = system: Fibroblast growth factor receptor 3 (Homo sapiens), P22607 [G697C]; experiment: Inhibition of human partial length FGFR3 G697C mutant (R442 to S771 residues) expressed in bacterial expression system at 1 uM by Kinomescan method relative to control
# Sequence of Fibroblast growth factor receptor 3 (Homo sapiens), P22607 [G697C] (P22607 whole entry G697C, the tested form may be a part): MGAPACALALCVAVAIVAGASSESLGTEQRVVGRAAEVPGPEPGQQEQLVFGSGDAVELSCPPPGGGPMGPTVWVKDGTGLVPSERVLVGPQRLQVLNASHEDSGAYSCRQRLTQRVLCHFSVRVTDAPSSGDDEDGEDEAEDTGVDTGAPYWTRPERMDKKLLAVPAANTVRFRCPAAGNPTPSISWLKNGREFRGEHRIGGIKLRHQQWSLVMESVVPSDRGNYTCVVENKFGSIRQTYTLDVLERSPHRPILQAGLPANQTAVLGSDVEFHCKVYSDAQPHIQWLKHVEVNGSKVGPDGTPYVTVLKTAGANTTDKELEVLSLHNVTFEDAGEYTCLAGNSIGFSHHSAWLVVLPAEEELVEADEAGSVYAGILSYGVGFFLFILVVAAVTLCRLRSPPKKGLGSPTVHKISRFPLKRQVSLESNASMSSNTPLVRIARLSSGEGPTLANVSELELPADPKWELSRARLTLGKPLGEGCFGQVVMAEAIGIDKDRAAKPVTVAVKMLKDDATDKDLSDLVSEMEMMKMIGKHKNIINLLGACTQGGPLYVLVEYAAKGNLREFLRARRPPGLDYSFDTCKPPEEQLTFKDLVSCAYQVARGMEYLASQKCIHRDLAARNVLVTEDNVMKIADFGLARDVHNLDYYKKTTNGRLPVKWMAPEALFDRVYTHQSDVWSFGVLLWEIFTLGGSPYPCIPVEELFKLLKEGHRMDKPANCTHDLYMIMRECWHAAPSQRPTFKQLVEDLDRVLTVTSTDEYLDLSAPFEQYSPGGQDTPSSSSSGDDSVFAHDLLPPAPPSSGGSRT
# [8] = target: Glycogen synthase kinase-3 alpha (Homo sapiens) (UniProt P49840); experiment: Inhibition of wild-type human full length GSK3A (M1 to S483 residues) expressed in bacterial expression system at 1 uM by Kinomescan method relative to control
# Sequence of Glycogen synthase kinase-3 alpha (Homo sapiens) (P49840 2-483 limits assumed): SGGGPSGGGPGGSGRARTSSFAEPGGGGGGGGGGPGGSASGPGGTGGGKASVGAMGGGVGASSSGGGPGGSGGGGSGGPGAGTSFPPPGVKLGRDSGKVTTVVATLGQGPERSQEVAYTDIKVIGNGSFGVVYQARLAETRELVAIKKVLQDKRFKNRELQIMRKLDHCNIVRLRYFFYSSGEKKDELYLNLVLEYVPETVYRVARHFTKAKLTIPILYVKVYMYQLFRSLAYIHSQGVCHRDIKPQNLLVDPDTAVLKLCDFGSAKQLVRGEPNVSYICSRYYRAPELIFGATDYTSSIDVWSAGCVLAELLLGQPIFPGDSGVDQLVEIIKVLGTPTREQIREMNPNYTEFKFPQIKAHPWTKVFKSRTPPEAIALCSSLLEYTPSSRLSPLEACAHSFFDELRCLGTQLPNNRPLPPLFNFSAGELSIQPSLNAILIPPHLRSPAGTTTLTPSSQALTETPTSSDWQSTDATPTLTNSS
# [9] = target: Insulin receptor (Homo sapiens) (UniProt P06213); experiment: Inhibition of wild-type human partial length INSR (P997 to E1318 residues) expressed in mammalian expression system at 1 uM by Kinomescan method relative to control
# [10] = target: Mitogen-activated protein kinase 8 (Homo sapiens) (UniProt P45983); experiment: Inhibition of wild-type human full length JNK1 (M1 to Q384 residues) expressed in mammalian expression system at 1 uM by Kinomescan method relative to control
# [11] = target: Serine/threonine-protein kinase mTOR (Homo sapiens) (UniProt P42345); experiment: Inhibition of wild-type human partial length MTOR (L1382 to W2549 residues) expressed in mammalian expression system at 1 uM by Kinomescan method relative to control
# [12] = target: cGMP-dependent protein kinase 1 (Homo sapiens) (UniProt Q13976); experiment: Inhibition of wild-type human partial length PRKG1 (L339 to F686 residues) expressed in bacterial expression system at 1 uM by Kinomescan method relative to control
# [13] = target: Serine/threonine-protein kinase SIK3 (Homo sapiens) (UniProt Q9Y2K2); experiment: Inhibition of wild-type human partial length QSK (A90 to L395 residues) expressed in mammalian expression system at 1 uM by Kinomescan method relative to control
# Sequence of Serine/threonine-protein kinase SIK3 (Homo sapiens) (Q9Y2K2 whole entry, looked up, the tested form may be a part): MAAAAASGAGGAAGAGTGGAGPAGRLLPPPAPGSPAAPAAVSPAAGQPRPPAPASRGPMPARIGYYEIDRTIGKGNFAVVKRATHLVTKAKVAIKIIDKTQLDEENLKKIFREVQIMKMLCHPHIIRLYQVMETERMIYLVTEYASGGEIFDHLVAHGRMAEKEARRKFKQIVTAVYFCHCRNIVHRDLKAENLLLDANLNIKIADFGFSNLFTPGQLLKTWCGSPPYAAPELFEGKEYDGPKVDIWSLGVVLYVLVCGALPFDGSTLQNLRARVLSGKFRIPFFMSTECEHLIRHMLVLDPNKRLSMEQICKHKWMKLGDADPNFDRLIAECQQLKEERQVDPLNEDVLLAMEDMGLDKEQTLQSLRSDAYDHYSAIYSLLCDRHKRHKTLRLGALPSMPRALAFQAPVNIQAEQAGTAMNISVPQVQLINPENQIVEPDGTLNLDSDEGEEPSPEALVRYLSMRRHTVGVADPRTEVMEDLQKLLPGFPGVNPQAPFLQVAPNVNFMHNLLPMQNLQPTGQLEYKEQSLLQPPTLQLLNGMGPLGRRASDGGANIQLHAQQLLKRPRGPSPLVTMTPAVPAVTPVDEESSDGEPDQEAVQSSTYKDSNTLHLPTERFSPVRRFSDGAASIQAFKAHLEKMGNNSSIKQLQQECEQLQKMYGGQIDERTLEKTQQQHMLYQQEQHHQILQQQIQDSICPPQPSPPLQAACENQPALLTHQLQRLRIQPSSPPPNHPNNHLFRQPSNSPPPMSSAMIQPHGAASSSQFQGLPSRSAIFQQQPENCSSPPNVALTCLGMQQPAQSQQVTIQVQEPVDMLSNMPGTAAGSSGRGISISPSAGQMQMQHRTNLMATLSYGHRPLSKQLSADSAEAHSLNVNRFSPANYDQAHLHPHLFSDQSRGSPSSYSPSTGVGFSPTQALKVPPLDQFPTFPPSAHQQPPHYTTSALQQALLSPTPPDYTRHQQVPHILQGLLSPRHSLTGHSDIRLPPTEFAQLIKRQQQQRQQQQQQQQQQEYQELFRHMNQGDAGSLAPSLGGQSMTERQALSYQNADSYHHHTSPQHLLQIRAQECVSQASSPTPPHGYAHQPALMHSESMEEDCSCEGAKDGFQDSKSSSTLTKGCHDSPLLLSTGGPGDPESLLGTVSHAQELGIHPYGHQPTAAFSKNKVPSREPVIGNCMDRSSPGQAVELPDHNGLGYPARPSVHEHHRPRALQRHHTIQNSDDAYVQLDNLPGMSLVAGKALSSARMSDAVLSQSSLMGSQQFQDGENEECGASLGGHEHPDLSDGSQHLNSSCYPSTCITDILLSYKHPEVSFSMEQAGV
# [14] = target: Serine/threonine-protein kinase TBK1 (Homo sapiens) (UniProt Q9UHD2); experiment: Inhibition of wild-type human full length TBK1 (M1 to L729 residues) expressed in mammalian expression system at 1 uM by Kinomescan method relative to control
# [15] = target: Serine/threonine-protein kinase tousled-like 1 (Homo sapiens) (UniProt Q9UKI8); experiment: Inhibition of wild-type human partial length TLK1 (K447 to A754 residues) expressed in bacterial expression system at 1 uM by Kinomescan method relative to control
# [16] = target: Mitogen-activated protein kinase kinase kinase 19 (Homo sapiens) (UniProt Q56UN5); experiment: Inhibition of wild-type human partial length YSK4 (T1019 to H1328 residues) expressed in mammalian expression system at 1 uM by Kinomescan method relative to control
# [17] = target: Dual specificity tyrosine-phosphorylation-regulated kinase 2 (Homo sapiens) (UniProt Q92630); experiment: Inhibition of wild-type human full length DYRK2 (M1 to S528 residues) expressed in mammalian expression system at 10 uM by Kinomescan method relative to control
# Sequence of Dual specificity tyrosine-phosphorylation-regulated kinase 2 (Homo sapiens) (Q92630 whole entry, the tested form may be a part): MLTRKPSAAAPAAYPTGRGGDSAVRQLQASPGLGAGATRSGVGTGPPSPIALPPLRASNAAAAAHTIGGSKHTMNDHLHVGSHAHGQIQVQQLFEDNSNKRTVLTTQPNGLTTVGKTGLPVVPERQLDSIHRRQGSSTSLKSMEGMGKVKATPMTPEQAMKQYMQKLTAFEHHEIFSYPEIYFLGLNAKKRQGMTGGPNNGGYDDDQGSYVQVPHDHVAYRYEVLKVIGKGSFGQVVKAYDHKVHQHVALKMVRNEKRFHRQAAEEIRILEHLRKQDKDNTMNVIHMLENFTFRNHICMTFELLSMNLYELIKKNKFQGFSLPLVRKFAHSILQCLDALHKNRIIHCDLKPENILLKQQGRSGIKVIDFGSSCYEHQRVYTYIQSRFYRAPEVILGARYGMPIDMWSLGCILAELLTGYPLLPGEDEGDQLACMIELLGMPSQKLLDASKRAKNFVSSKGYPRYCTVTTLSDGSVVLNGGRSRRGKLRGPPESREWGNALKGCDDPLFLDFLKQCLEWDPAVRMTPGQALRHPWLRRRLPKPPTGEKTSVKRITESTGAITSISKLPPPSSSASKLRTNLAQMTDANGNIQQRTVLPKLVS
# [18] = target: Ephrin type-B receptor 6 (Homo sapiens) (UniProt O15197); experiment: Inhibition of wild-type human partial length EPHB6 (Q634 to P948 residues) expressed in mammalian expression system at 10 uM by Kinomescan method relative to control
# [19] = target: Mitogen-activated protein kinase 6 (Homo sapiens) (UniProt Q16659); experiment: Inhibition of wild-type human partial length ERK3 (M1 to P413 residues) expressed in bacterial expression system at 10 uM by Kinomescan method relative to control
# [20] = target: Hormonally up-regulated neu tumor-associated kinase (Homo sapiens) (UniProt P57058); experiment: Inhibition of wild-type human partial length HUNK (A31 to K354 residues) expressed in bacterial expression system at 10 uM by Kinomescan method relative to control
# [21] = target: Serine/threonine-protein kinase mTOR (Homo sapiens) (UniProt P42345); experiment: Inhibition of wild-type human partial length MTOR (L1382 to W2549 residues) expressed in mammalian expression system at 10 uM by Kinomescan method relative to control
# [22] = target: Serine/threonine-protein kinase PAK 5 (Homo sapiens) (UniProt Q9P286); experiment: Inhibition of wild-type human partial length PAK7 (Y400 to H719 residues) expressed in bacterial expression system at 10 uM by Kinomescan method relative to control
# [23] = target: Phosphatidylinositol 4,5-bisphosphate 3-kinase catalytic subunit alpha isoform (Homo sapiens) (UniProt P42336); experiment: Inhibition of wild-type human partial length PIK3CA (R108 to N1068 residues) expressed in mammalian expression system at 10 uM by Kinomescan method relative to control
# [24] = target: Phosphatidylinositol 4-kinase beta (Homo sapiens) (UniProt Q9UBF8); experiment: Inhibition of wild-type human full length PIK4CB (M1 to M828 residues) expressed in mammalian expression system at 10 uM by Kinomescan method relative to control
# [25] = target: Phosphatidylinositol 4-phosphate 5-kinase type-1 gamma (Homo sapiens) (UniProt O60331); experiment: Inhibition of wild-type human partial length PIP5K1C (M1 to T668 residues) expressed in mammalian expression system at 10 uM by Kinomescan method relative to control
# [26] = target: Mitogen-activated protein kinase kinase kinase 7 (Homo sapiens) (UniProt O43318); experiment: Inhibition of wild-type human partial length TAK1 (M1 to Q303 residues) expressed in mammalian expression system at 10 uM by Kinomescan method relative to control
# [27] = target: NT-3 growth factor receptor (Homo sapiens) (UniProt Q16288); experiment: Inhibition of wild-type human partial length TRKC (Q531 to G825 residues) expressed in mammalian expression system at 10 uM by Kinomescan method relative to control
# Sequence of NT-3 growth factor receptor (Homo sapiens) (Q16288 32-839 limits assumed): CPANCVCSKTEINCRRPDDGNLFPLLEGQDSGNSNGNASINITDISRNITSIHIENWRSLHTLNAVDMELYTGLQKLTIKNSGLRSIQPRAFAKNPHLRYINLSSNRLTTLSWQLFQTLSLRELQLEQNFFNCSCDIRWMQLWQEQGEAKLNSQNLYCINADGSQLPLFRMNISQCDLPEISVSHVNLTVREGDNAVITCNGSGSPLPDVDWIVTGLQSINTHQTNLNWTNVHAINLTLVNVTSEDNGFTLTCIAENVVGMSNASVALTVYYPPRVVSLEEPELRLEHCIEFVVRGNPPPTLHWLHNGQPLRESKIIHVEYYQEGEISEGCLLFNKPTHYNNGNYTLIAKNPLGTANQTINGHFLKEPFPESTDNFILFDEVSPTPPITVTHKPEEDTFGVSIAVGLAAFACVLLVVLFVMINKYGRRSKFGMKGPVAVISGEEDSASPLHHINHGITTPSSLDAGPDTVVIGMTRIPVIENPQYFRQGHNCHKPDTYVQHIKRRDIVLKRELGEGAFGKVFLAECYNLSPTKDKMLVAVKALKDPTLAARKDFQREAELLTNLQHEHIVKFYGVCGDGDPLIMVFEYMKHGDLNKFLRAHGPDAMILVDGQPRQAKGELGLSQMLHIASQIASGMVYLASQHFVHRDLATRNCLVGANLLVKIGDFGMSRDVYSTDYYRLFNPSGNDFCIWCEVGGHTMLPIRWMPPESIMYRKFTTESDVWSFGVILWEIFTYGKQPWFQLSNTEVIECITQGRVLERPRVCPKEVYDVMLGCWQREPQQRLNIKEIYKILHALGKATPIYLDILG
smiles,measurement,setting,value
O=C(Nc1cccc([C@@H]2CN(c3ncnc4[nH]ccc34)CCN2CCO)c1)Nc1c(F)cccc1N1CCCC1,inhibition,[1],97%
same,inhibition,[2],36%
same,inhibition,[3],87%
same,inhibition,[4],95%
same,inhibition,[5],83%
same,inhibition,[6],100%
same,inhibition,[7],100%
same,inhibition,[8],100%
same,inhibition,[9],100%
same,inhibition,[10],70%
same,inhibition,[11],96%
same,inhibition,[12],100%
same,inhibition,[13],93%
same,inhibition,[14],81%
same,inhibition,[15],100%
same,inhibition,[16],40%
O=C(Nc1cccc([C@H]2CCCN(c3ncnc4[nH]ccc34)C2)c1)Nc1ccccc1N1CCCC1,inhibition,[17],78%
same,inhibition,[18],8.6%
same,inhibition,[19],100%
same,inhibition,[20],100%
same,inhibition,[21],98%
same,inhibition,[22],69%
same,inhibition,[23],99%
same,inhibition,[24],89%
same,inhibition,[25],59%
same,inhibition,[26],24%
same,inhibition,[27],36%
